Test results published in article PMC12190736, “Development and In Vitro Characterization of [^3H]GMC-058 as Radioligand for Imaging Parkinsonian-Related Proteinopathies” (Cells, 2025).

Tested on: fresh-frozen human brain sections
Test: Autoradiography on fresh-frozen brain tissue sections
Assay type: binding
Conditions: for NSB: 5 µM GMC044; for Specific binding relative to displaceable binding in controls: on average
Procedure: Selections of frozen human sections (described in Table 2 and Table 3) were used for binding autoradiography. Sections were first pre-incubated for 20 min in binding buffer [50 mM Tris-HCl (pH 7.4), 120 mM NaCl, 5 mM KCl, 2 mM CaCl2, 1 mM MgCl2, and 0.1% BSA] and then incubated with [^3H]GMC-058 (specific activity 22 Ci/mmol); [^3H]GMC-073 (specific activity 23.4 Ci/mmol); or […] in binding buffer for 180 min at RT. In the pilot autoradiography experiment (Figure A1). [^3H]GMC-058 was tested at 25 and 50 nM, while [^3H]GMC-073 and [^3H]GMC-098 were each tested at 10 and 20 nM. For all other autoradiography in fresh-frozen tissue sections, 25 nM [^3H]GMC-058 was used. To determine NSB, adjacent brain sections were incubated with [^3H]-tracer mixed with 5 μM of unlabeled GMC-044. The binding reaction was stopped with two 10 min washes in washing buffer [50 mM Tris-HCl (pH 7.4) at 4 °C] and a brief dip in cold distilled water. Slides were allowed to air-dry before being placed under storage phosphor screens (Fujifilm Plate BAS-TR2025, Fujifilm, Tokyo, Japan) in imaging cassettes for 90 h together with ART0123C and ART0123B tritium standards on glass slides (American Radiolabeled Chemicals Inc., St. Louis, MO, USA). Storage phosphor screens were scanned using an Amersham Typhoon FLA-9500 phosphor imaging scanner (Cytiva, Marlborough, MA, USA), and the resulting images were analyzed using Multi Gauge 3.2 phosphor imager software (Fujifilm, Tokyo, Japan) for ROI delimitation, density calibration, and quantification. Quantitative binding data from duplicates of the total, and NSB were plotted and analyzed using graphPad Prism v10 (GraphPad Software, Boston, MA, USA). Specific binding was determined by subtracting the non-specific signal from the total signal. The toluidine blue staining of adjacent sections was used to obtain anatomical references for white- and gray-matter ROI selection. Care was taken not to include artifact signals in the ROIs analyzed. These artifacts were identified as randomly placed punctate signals appearing in both total and NSB images, and they often coincided with small folds or tears in the tissue sections.

[1] = 25 nM radioligand, gray matter of cingulate cortex, control C03
[2] = 25 nM, PD1, cingulate gyrus, GM
[3] = 25 nM, PD1, cingulate gyrus, WM
[4] = 25 nM, PD2, cingulate gyrus, GM
[5] = 25 nM, PD2, cingulate gyrus, WM
[6] = 25 nM, PD3, cingulate gyrus, GM
[7] = 25 nM, PD3, cingulate gyrus, WM
[8] = 25 nM, non-dementia control C01, cingulate gyrus, GM
[9] = 25 nM, non-dementia control C01, cingulate gyrus, WM
[10] = 25 nM, non-dementia control C02, cingulate gyrus, GM
[11] = 25 nM, non-dementia control C02, cingulate gyrus, WM
[12] = 25 nM, non-dementia control C03, cingulate gyrus, GM
[13] = 25 nM, non-dementia control C03, cingulate gyrus, WM
[14] = 50 nM radioligand, gray matter of cingulate cortex, control C03

## [3H]c1cc(N2CCN(c3ccc(NC(=O)C(C)(C)C)cc3)CC2)ccc1OC [[^3H]GMC-058, N-(4-(4-(4-methoxy-[3-3H]phenyl)piperazin-1-yl)phenyl)pivalamide]
[1]
  NSB: 37.6 ± 3.8 fmol/mg tissue equivalent
  Total Minus NSB: 20 fmol/mg
  Total binding: 57.6 ± 1.8 fmol/mg tissue equivalent
25 nM, CBD1 block 1, SFG, GM
  Specific Binding: 50 fmol/mg tissue equivalent
25 nM, CBD1 block 1, SFG, WM
  Specific Binding: 29 fmol/mg tissue equivalent
25 nM, CBD1 block 2, SFG, GM
  Specific Binding: 32 fmol/mg tissue equivalent
25 nM, CBD1 block 2, SFG, WM
  Specific Binding: 130 fmol/mg tissue equivalent
25 nM, CBD, gray matter of superior frontal gyrus
  Specific binding relative to displaceable binding in controls: three-fold
25 nM, MSA1, cerebellum, GM
  NSB (5 µM GMC044): 27.4 fmol/mg tissue equivalent
  Total Minus NSB: 19.5 fmol/mg tissue equivalent
  Total binding: 46.9 fmol/mg tissue equivalent
25 nM, MSA1, cerebellum, WM
  NSB (5 µM GMC044): 33.3 fmol/mg tissue equivalent
  Total Minus NSB: 16.8 fmol/mg tissue equivalent
  Total binding: 50.1 fmol/mg tissue equivalent
25 nM, MSA2, cerebellum, GM
  NSB (5 µM GMC044): 19.9 fmol/mg tissue equivalent
  Total Minus NSB: 10.3 fmol/mg tissue equivalent
  Total binding: 30.3 fmol/mg tissue equivalent
25 nM, MSA2, cerebellum, WM
  NSB (5 µM GMC044): 27.7 fmol/mg tissue equivalent
  Total Minus NSB: 24.8 fmol/mg tissue equivalent
  Total binding: 52.5 fmol/mg tissue equivalent
25 nM, MSA3, cerebellum, GM
  Specific Binding: 26 fmol/mg tissue equivalent
25 nM, MSA3, cerebellum, WM
  Specific Binding: 21 fmol/mg tissue equivalent
25 nM, MSA4, cerebellum, GM
  Specific Binding: 23 fmol/mg tissue equivalent
25 nM, MSA4, cerebellum, WM
  Specific Binding: 49 fmol/mg tissue equivalent
25 nM, NDE C03, cingulate cortex, GM
  Specific Binding: 15 fmol/mg tissue equivalent
25 nM, NDE C03, cingulate cortex, WM
  Specific Binding: −2 fmol/mg tissue equivalent
25 nM, NDE C04, caudate, GM
  Specific Binding: 8 fmol/mg tissue equivalent
25 nM, NDE C04, caudate, WM
  Specific Binding: −1 fmol/mg tissue equivalent
25 nM, NDE C04, globus pallidus, GM
  Specific Binding: 10 fmol/mg tissue equivalent
25 nM, NDE C04, globus pallidus, WM
  Specific Binding: 0 fmol/mg tissue equivalent
25 nM, NDE Co4, putamen, GM
  Specific Binding: 12 fmol/mg tissue equivalent
25 nM, NDE Co4, putamen, WM
  Specific Binding: 4 fmol/mg tissue equivalent
[2]
  NSB (5 µM GMC044): 42.3 fmol/mg tissue equivalent
  Total Minus NSB: 13.3 fmol/mg tissue equivalent
  Total binding: 55.6 fmol/mg tissue equivalent
[3]
  NSB (5 µM GMC044): 50.6 fmol/mg tissue equivalent
  Total Minus NSB: 1.9 fmol/mg tissue equivalent
  Total binding: 52.5 fmol/mg tissue equivalent
[4]
  NSB (5 µM GMC044): 17.1 fmol/mg tissue equivalent
  Total Minus NSB: −0.9 fmol/mg tissue equivalent
  Total binding: 16.2 fmol/mg tissue equivalent
[5]
  NSB (5 µM GMC044): 53.7 fmol/mg tissue equivalent
  Total Minus NSB: 1.6 fmol/mg tissue equivalent
  Total binding: 55.4 fmol/mg tissue equivalent
[6]
  NSB (5 µM GMC044): 42.0 fmol/mg tissue equivalent
  Total Minus NSB: 17.2 fmol/mg tissue equivalent
  Total binding: 59.3 fmol/mg tissue equivalent
[7]
  NSB (5 µM GMC044): 47.1 fmol/mg tissue equivalent
  Total Minus NSB: 8.3 fmol/mg tissue equivalent
  Total binding: 55.4 fmol/mg tissue equivalent
25 nM, PSP1, GP, GM
  Specific Binding: 102 fmol/mg tissue equivalent
25 nM, PSP1, GP, WM
  Specific Binding: 32 fmol/mg tissue equivalent
25 nM, PSP2, GP, GM
  Specific Binding: 118 fmol/mg tissue equivalent
25 nM, PSP2, GP, WM
  Specific Binding: −1 fmol/mg tissue equivalent
25 nM, PSP, gray matter of globus pallidus
  Specific binding relative to displaceable binding in controls: ten-fold
25 nM, cingulate cortex of controls and PD patients, cerebellum of MSA patients
  Specific binding versus controls: did not show clear evidence of specific binding higher than the displaceable (off-target) binding in controls
[8]
  NSB (5 µM GMC044): 60.3 fmol/mg tissue equivalent
  Total Minus NSB: −3.5 fmol/mg tissue equivalent
  Total binding: 56.8 fmol/mg tissue equivalent
[9]
  NSB (5 µM GMC044): 59.8 fmol/mg tissue equivalent
  Total Minus NSB: −2.9 fmol/mg tissue equivalent
  Total binding: 56.9 fmol/mg tissue equivalent
[10]
  NSB (5 µM GMC044): 24.6 fmol/mg tissue equivalent
  Total Minus NSB: 19.8 fmol/mg tissue equivalent
  Total binding: 44.3 fmol/mg tissue equivalent
[11]
  NSB (5 µM GMC044): 31.8 fmol/mg tissue equivalent
  Total Minus NSB: 13.6 fmol/mg tissue equivalent
  Total binding: 45.3 fmol/mg tissue equivalent
[12]
  NSB (5 µM GMC044): 28.6 fmol/mg tissue equivalent
  Total Minus NSB: 16.7 fmol/mg tissue equivalent
  Total binding: 45.3 fmol/mg tissue equivalent
[13]
  NSB (5 µM GMC044): 39.0 fmol/mg tissue equivalent
  Total Minus NSB: 9.7 fmol/mg tissue equivalent
  Total binding: 48.7 fmol/mg tissue equivalent
25 nM, two MSA cases, cerebellar gray matter
  Specific binding relative to average displaceable binding in gray matter of controls: two-fold higher
25 nM, white matter of MSA and CBD cases
  Average specific binding: 35 to 80 fmol/mg
25 nM, white matter of control cases
  Specific Binding: No specific binding
[14]
  NSB: 74.6 ± 4.1 fmol/mg tissue equivalent
  Total Minus NSB: 40 fmol/mg
  Total binding: 114.1 ± 9.3 fmol/mg tissue equivalent
5 µM GMC-044, control cingulate cortex tissue
  Binding displaced by GMC-044: ~ 65%
Cingulate cortex of healthy controls
  Binding in control tissue: negligible binding
